Columns and labels:
TDO (A172) = biological target: T1, TDO (A172) (Homo sapiens, UniProt P48775); assay: A172 Kynurenine cell based assay; conditions: A172 human glioblastoma cells expressing TDO; kynurenine production, 48 hours
T1 construct: This assay utilised cancer cells which expressed either TDO (A172) or IDO (SKOV3); endogenous in cells; host or cells: A172 (human glioblastoma)
Experimental: (§1) Exemplary compounds of the invention were prepared, and tested to determine their effect as TDO and/or IDO inhibitors. Two different assays were employed: 1. a cell-based assay for detecting the effect of test compounds on kynurenine production in two different cancer cell types. This assay utilised cancer cells which expressed either TDO (A172) or IDO (SKOV3) and as such was used as a means of testing compound activity at these two enzymes in a cell-based context. 2. a TDO and IDO biochemical coupled assay which utilised recombinantly produced and purified TDO and IDO enzymes in combination with the enzyme formamidase. This coupled enzyme system allowed conversion of N-formylkynurenine produced by TDO or IDO activity to kynurenine which was then quantified by fluorescence following addition of Erhlich's Reagent The protocols for these are set out below.
(§2) Cell Based Assay for Detection of Kynurenine Produced by TDO and/or IDO
(§3) A172 (human glioblastoma) and SKOV3 (human ovarian adenocarcinoma) cells were seeded in a 96 well plate at 30,000 or 40,000 cells per well respectively in phenol red-free RPMI supplemented with 10% FCS, 2 mM L-glutamine and 500 µM L-tryptophan. IDO expression was induced in the SKOV3 cells by the addition of 500 ng/ml IFN-γ. Cells were incubated at 37° C. with or without the addition of test compound. After 48 hours, the cells were removed by centrifugation and Erhlich's reagent was added to the supernatant. The Erhlich's reagent was incubated for 5 minutes before the absorbance was read at 490 nm.

IDO (SKOV3) = biological target: T2, IDO (SKOV3) (Homo sapiens, UniProt P14902); assay: SKOV3 Kynurenine cell based assay; conditions: SKOV3 human ovarian adenocarcinoma cells, IDO induced by IFN-γ; kynurenine production, 48 hours
T2 construct: IDO expression was induced in the SKOV3 cells by the addition of 500 ng/ml IFN-γ; endogenous in cells; host or cells: SKOV3 (human ovarian adenocarcinoma), IFN-γ induced
Experimental: as §1, §2
as §3, with “supernatant.” for “supernatant. The Erhlich's reagent was incubated for 5 minutes before the absorbance was read at 490 nm.”

Recombinant human TDO = Recombinant human TDO (Homo sapiens, UniProt P48775); assay: hTDO biochemical assay (coupled with formamidase); conditions: 330 μM L-tryptophan, coupled with kynurenine formamidase, fluorescence
Experimental: as §1
(§4) TDO and IDO Biochemical Coupled Assay
(§5) Recombinant human IDO or TDO was incubated in 50 mM KPO4 (pH 7.0), 0.5 mM EGTA, 0.5 mM EDTA, 0.05% Triton™ X100, 20 mM ascorbate, […] methylene blue, 500 U/ml catalase, 50 μg/ml KynB (kynurenine formamidase). TDO assays were carried out in the presence of 330 μM L-tryptophan, while IDO assays had the addition of 45 µM L-tryptophan. After incubation for 17 minutes at room temperature the reactions were stopped by the addition of Erhlich's reagent and incubated at room temperature for 5 minutes before the fluorescence was read (Ex475, Em530).

Recombinant human IDO = Recombinant human IDO (Homo sapiens, UniProt P14902); assay: hIDO biochemical assay (coupled with formamidase); conditions: coupled with kynurenine formamidase, fluorescence
Experimental: as §1, §4, §5

Chain of Recombinant human TDO (P48775 whole entry): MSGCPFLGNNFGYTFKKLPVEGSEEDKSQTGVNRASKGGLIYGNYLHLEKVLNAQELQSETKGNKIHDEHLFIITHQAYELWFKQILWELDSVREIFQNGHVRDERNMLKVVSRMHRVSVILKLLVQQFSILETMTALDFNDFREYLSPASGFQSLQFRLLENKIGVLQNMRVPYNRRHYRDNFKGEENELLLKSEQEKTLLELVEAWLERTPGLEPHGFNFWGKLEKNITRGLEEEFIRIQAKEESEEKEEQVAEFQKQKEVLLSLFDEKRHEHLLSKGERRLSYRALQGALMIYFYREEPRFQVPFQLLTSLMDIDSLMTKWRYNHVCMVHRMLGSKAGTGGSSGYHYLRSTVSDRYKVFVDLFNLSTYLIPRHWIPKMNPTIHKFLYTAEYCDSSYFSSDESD
T1 sequence (P48775 whole entry): as above
T2 sequence (P14902 whole entry): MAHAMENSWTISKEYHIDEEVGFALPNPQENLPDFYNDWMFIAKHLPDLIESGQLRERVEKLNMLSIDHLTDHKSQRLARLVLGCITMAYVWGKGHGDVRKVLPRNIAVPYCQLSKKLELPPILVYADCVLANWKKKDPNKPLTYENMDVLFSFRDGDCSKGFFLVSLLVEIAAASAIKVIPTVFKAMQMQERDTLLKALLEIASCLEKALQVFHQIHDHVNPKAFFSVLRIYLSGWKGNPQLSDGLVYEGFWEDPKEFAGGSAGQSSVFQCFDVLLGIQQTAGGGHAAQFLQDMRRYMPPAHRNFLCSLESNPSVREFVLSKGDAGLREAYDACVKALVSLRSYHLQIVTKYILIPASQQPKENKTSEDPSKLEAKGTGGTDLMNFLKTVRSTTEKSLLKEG
Chain of Recombinant human IDO (P14902 whole entry): as above

Structure (SMILES): O=C(Nc1oncc1-c1ccccc1)C1CCCN1 (stereo not shown) [Compound 66]
- A172 Kynurenine cell based assay pIC50 (TDO (A172)): ++ (++ = pIC50 4.50-5.49)
- SKOV3 Kynurenine cell based assay pIC50 (IDO (SKOV3)): +/− (+/− = pIC50 < 4.00)

Structure (SMILES): Nc1oncc1-c1ccccc1[N+](=O)[O-] [Compound 67]
- A172 Kynurenine cell based assay pIC50 (TDO (A172)): +/− (+/− = pIC50 < 4.00)
- SKOV3 Kynurenine cell based assay pIC50 (IDO (SKOV3)): + (+ = pIC50 4.00-4.49)

Structure (SMILES): Nc1oncc1-c1ccccc1O [Compound 68]
- A172 Kynurenine cell based assay pIC50 (TDO (A172)): ++ (++ = pIC50 4.50-5.49)
- SKOV3 Kynurenine cell based assay pIC50 (IDO (SKOV3)): + (+ = pIC50 4.00-4.49)

Structure (SMILES): CN(C)CCC(=O)Nc1oncc1-c1ccccc1 [Compound 69]
- A172 Kynurenine cell based assay pIC50 (TDO (A172)): +++ (+++ = pIC50 ≥ 5.50)
- SKOV3 Kynurenine cell based assay pIC50 (IDO (SKOV3)): + (+ = pIC50 4.00-4.49)

Structure (SMILES): O=C(Nc1nnnn1-c1ccccc1)c1ccccc1 [Compound 70]
- A172 Kynurenine cell based assay pIC50 (TDO (A172)): ++ (++ = pIC50 4.50-5.49)
- SKOV3 Kynurenine cell based assay pIC50 (IDO (SKOV3)): ++ (++ = pIC50 4.50-5.49)

Structure (SMILES): CNCC(=O)Nc1oncc1-c1ccccc1 [Compound 71]
- A172 Kynurenine cell based assay pIC50 (TDO (A172)): ++ (++ = pIC50 4.50-5.49)
- SKOV3 Kynurenine cell based assay pIC50 (IDO (SKOV3)): + (+ = pIC50 4.00-4.49)

Structure (SMILES): CC(C)CS(=O)(=O)Nc1cncn1-c1ccccc1 [Compound 72]
- A172 Kynurenine cell based assay pIC50 (TDO (A172)): +/− (+/− = pIC50 < 4.00)
- SKOV3 Kynurenine cell based assay pIC50 (IDO (SKOV3)): + (+ = pIC50 4.00-4.49)

Structure (SMILES): NCC(=O)Nc1oncc1-c1ccccc1 [Compound 73]
- A172 Kynurenine cell based assay pIC50 (TDO (A172)): +++ (+++ = pIC50 ≥ 5.50)
- SKOV3 Kynurenine cell based assay pIC50 (IDO (SKOV3)): ++ (++ = pIC50 4.50-5.49)

Structure (SMILES): O=C(Nc1oncc1-c1ccccc1)C(O)C1CCCCC1 (stereo not shown) [Compound 74]
- A172 Kynurenine cell based assay pIC50 (TDO (A172)): + (+ = pIC50 4.00-4.49)
- SKOV3 Kynurenine cell based assay pIC50 (IDO (SKOV3)): + (+ = pIC50 4.00-4.49)

Structure (SMILES): CC(O)C(=O)Nc1oncc1-c1ccccc1 (stereo not shown) [Compound 75]
- hTDO biochemical assay pIC50 (Recombinant human TDO): ++ (++ = pIC50 4.50-5.49)
- A172 Kynurenine cell based assay pIC50 (TDO (A172)): +++ (+++ = pIC50 ≥ 5.50)
- SKOV3 Kynurenine cell based assay pIC50 (IDO (SKOV3)): + (+ = pIC50 4.00-4.49)
- hIDO biochemical assay pIC50 (Recombinant human IDO): ++ (++ = pIC50 4.50-5.49)

Structure (SMILES): O=C(Nc1oncc1-c1ccccc1)C(O)c1ccccc1 (stereo not shown) [Compound 76]
- A172 Kynurenine cell based assay pIC50 (TDO (A172)): ++ (++ = pIC50 4.50-5.49)
- SKOV3 Kynurenine cell based assay pIC50 (IDO (SKOV3)): + (+ = pIC50 4.00-4.49)

Structure (SMILES): O=C(Nc1cnoc1-c1ccccc1)c1ccccc1 [Compound 77]
- A172 Kynurenine cell based assay pIC50 (TDO (A172)): +/− (+/− = pIC50 < 4.00)
- SKOV3 Kynurenine cell based assay pIC50 (IDO (SKOV3)): + (+ = pIC50 4.00-4.49)

Structure (SMILES): Nc1oncc1-c1ccccc1CCO [Compound 78]
- A172 Kynurenine cell based assay pIC50 (TDO (A172)): ++ (++ = pIC50 4.50-5.49)
- SKOV3 Kynurenine cell based assay pIC50 (IDO (SKOV3)): + (+ = pIC50 4.00-4.49)

Structure (SMILES): O=S(=O)(Nc1cncn1-c1ccccc1)c1ccccc1 [Compound 79]
- A172 Kynurenine cell based assay pIC50 (TDO (A172)): +/− (+/− = pIC50 < 4.00)
- SKOV3 Kynurenine cell based assay pIC50 (IDO (SKOV3)): ++ (++ = pIC50 4.50-5.49)

Structure (SMILES): CC(C)CS(=O)(=O)Nc1cnoc1-c1ccccc1 [Compound 80]
- hTDO biochemical assay pIC50 (Recombinant human TDO): +/− (+/− = pIC50 < 4.00)
- A172 Kynurenine cell based assay pIC50 (TDO (A172)): +/− (+/− = pIC50 < 4.00)
- SKOV3 Kynurenine cell based assay pIC50 (IDO (SKOV3)): + (+ = pIC50 4.00-4.49)
- hIDO biochemical assay pIC50 (Recombinant human IDO): ++ (++ = pIC50 4.50-5.49)

Structure (SMILES): CC(N)C(=O)Nc1oncc1-c1ccccc1 (stereo not shown) [Compound 81]
- hTDO biochemical assay pIC50 (Recombinant human TDO): +/− (+/− = pIC50 < 4.00)
- A172 Kynurenine cell based assay pIC50 (TDO (A172)): +++ (+++ = pIC50 ≥ 5.50)
- SKOV3 Kynurenine cell based assay pIC50 (IDO (SKOV3)): ++ (++ = pIC50 4.50-5.49)
- hIDO biochemical assay pIC50 (Recombinant human IDO): + (+ = pIC50 4.00-4.49)

Structure (SMILES): NCCNc1oncc1-c1ccccc1 [Compound 82]
- A172 Kynurenine cell based assay pIC50 (TDO (A172)): +++ (+++ = pIC50 ≥ 5.50)
- SKOV3 Kynurenine cell based assay pIC50 (IDO (SKOV3)): + (+ = pIC50 4.00-4.49)

Source: patent US10047074B2, “Pharmaceutical compound” (IOmet Pharma Ltd., priority 2014, dated 2018)
